According to patent US20100016163A1, “Adjuvant and dispersant formulations for pesticidal applications” (priority 2007, published 2010):
Like-named read-outs stand apart in the source and are kept apart here.

Legend:
Panicum, fall = test: Field trial Example 7, % kill; type: in vivo; conditions: isopropyl ammonium glyphosate 360 g a.e./l
Protocol: (§1) The C14 DMAPA MeCl Esterquat formulation was prepared as follows: About 32.3 grams of a solution of the isopropyl ammonium salt of glyphosate, which was about 46.5% by weight acid equivalent (a.e.) of glyphosate and about 6.2 grams of deionized water, were added in a 4-ounce jar. Then, about 7.5 grams of the C14 DMAPA MeCl Esterquat and about 4 grams of propylene glycol were slowly added to the jar with stirring.
(§2) Samples of the formulations as made above were applied to subject plants at two application rates, 90% and 45% of the label rate of RoundUp® Ultra, available from Monsanto Company, St. Louis, Mo. RoundUp® Ultra contains about 360 g a.e./l of isopropyl ammonium glyphosate salt and about 15% by weight of a blend of surfactants. The precise identity of the surfactants has not been disclosed.
(§3) Eight plant species were selected for the study. They include (1) Bamyardgrass, (2) Redroot pigweed, (3) Morning glory ivyleaf, (4) Sicklepod, (5) Panicum, (6) Crabgrass, (7) Velvetleaf, and (8) Sunflower. The tests were performed in a randomized complete block design with 5 replicates of each species of plant. Plants were grown in square plastic pots, 3.75 inches×3.75 inches and 3.125 inches deep. Prior to treatment, 5 replicate pots were indiscriminately selected for each treatment and plant species. Treatments were applied as foliar applications with a hand pump sprayer equipped with 1 nozzle calibrated to deliver 15 gallons per acre. All spraying tests included a set of 5 untreated control plants from each species.

Sicklepod = test: Field trial Example 7, % kill; type: in vivo; conditions: isopropyl ammonium glyphosate 360 g a.e./l
Protocol: as §1, §2, §3

Redroot pigweed = test: Field trial Example 7, % kill; type: in vivo; conditions: isopropyl ammonium glyphosate 360 g a.e./l
Protocol: as §1, §2, §3

Morning glory, ivyleaf = test: Field trial Example 7, % kill; type: in vivo; conditions: isopropyl ammonium glyphosate 360 g a.e./l
Protocol: as §1, §2, §3

Barnyardgrass = test: Field trial Example 7, % kill; type: in vivo; conditions: isopropyl ammonium glyphosate 360 g a.e./l
Protocol: as §1, §2, §3

Sunflower = test: Field trial Example 7, % kill; type: in vivo; conditions: isopropyl ammonium glyphosate 360 g a.e./l
Protocol: as §1, §2, §3

Velvetleaf = test: Field trial Example 7, % kill; type: in vivo; conditions: isopropyl ammonium glyphosate 360 g a.e./l
Protocol: as §1, §2, §3

Crabgrass = test: Field trial Example 7, % kill; type: in vivo; conditions: isopropyl ammonium glyphosate 360 g a.e./l
Protocol: as §1, §2, §3

[1] = Surface tension, Gibbs isotherm (Kibron μTrough S); type: physicochemical; conditions: FIG. 3
Excerpt: The surface tension of a solution can give important information about its behavior as a surfactant. Measuring the surface tension of a series of aqueous solutions of a molecule and plotting the measured surface tension results versus the logarithm of the concentrations of the series of aqueous solutions yields a plot known as a Gibbs isotherm. From the Gibbs isotherm, one can obtain the critical micelle concentration (CMC) of a surfactant as well as the surface tension at the CMC, two parameters that can indicate the behavior of a surfactant.
For each molecule studied, 14 solutions were prepared so that each solution was half the concentration of the previous solution. Another solution that consisted of only deionized water was used as a reference. Therefore, a total of 15 solutions were studied for each molecule.

all 8 species = test: Field trial of phytotoxicity enhancement, isopropyl ammonium glyphosate formulations (Example 7), sum over species; type: in vivo; conditions: foliar, isopropyl ammonium glyphosate 360 g a.e./l, 15% surfactant
Protocol: as §1, §2
as §3, with “Treatments were applied as foliar applications with a hand pump sprayer equipped with 1 nozzle calibrated to deliver 15 gallons per acre. All spraying tests included a set of 5 untreated control plants from each species.” left out

[2] = acid form, 25° C., cited from earlier work

Structure (SMILES): CCCCCCCCCCCCCC(=O)NCCC[N+](C)(C)C.[Cl-] [C14 DMAPA MeCl Esterquat]
- % kill (Panicum, fall; high (90%) application rate): 95%
- % kill (Panicum, fall; low (45%) application rate): 90%
- % kill (Sicklepod; high (90%) application rate): 33%
- % kill (Sicklepod; low (45%) application rate): 22%
- % kill (Redroot pigweed; high (90%) application rate): 100%
- % kill (Redroot pigweed; low (45%) application rate): 100%
- % kill (Morning glory, ivyleaf; high (90%) application rate): 84%
- % kill (Morning glory, ivyleaf; low (45%) application rate): 53%
- % kill (Barnyardgrass; high (90%) application rate): 100%
- % kill (Barnyardgrass; low (45%) application rate): 99%
- % kill (Sunflower; high (90%) application rate): 100%
- % kill (Sunflower; low (45%) application rate): 100%
- % kill (Velvetleaf; high (90%) application rate): 96%
- % kill (Velvetleaf; low (45%) application rate): 96%
- % kill (Crabgrass; high (90%) application rate): 100%
- % kill (Crabgrass; low (45%) application rate): 100%
- surface activity, compared with C14 DMAPA MeCl Esterquat [1]: higher surface activity
- Sum of % kill of all 8 species at low (45%) application rate (all 8 species; 45% of RoundUp Ultra label rate): 660%
- Sum of % kill of all 8 species at high (90%) application rate (all 8 species; 90% of RoundUp Ultra label rate): 708%

Structure (SMILES): O=C(O)CNCP(=O)(O)O [Glyphosate, N-(phosphonomethyl)glycine]
- solubility in water [2]: 1.16 % by weight
- solubility in water ([2]; listed as glyphosate): about 1.16 % by weight
